Measured values: article PMC12865225 (Clinical and Translational Science, 2026)

Target: T1, OATP2B1 (Homo sapiens, UniProt O94956)
T1 construct: expressed in transfected cells; host or cells: HEK293 (recombinant baculovirus-mediated transduction)
T1 sequence (O94956 1-709): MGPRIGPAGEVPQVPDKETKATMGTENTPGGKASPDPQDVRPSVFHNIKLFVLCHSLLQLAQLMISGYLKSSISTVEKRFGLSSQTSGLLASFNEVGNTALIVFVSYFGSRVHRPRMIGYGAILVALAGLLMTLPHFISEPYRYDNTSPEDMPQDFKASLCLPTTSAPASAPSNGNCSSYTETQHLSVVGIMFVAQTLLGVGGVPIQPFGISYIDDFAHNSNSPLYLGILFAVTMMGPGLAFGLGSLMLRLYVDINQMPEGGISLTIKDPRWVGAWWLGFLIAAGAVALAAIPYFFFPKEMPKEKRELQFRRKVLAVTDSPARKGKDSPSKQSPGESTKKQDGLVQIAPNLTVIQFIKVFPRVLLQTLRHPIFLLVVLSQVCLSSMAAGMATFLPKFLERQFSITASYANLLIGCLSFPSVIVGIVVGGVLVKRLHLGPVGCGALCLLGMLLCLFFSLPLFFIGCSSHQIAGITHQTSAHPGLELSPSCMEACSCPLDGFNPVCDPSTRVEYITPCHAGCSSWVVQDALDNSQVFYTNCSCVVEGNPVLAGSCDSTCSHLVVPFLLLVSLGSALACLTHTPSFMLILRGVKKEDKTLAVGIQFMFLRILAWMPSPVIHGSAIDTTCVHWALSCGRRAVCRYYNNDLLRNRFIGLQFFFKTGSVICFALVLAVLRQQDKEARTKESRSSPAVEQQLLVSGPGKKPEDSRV
Experiment: Uptake transport assay in OATP2B1-expressing HEK293 cells
Format: cell-based
Settings: for transport by OATP2B1: 2 and 50 μM, 10 min; for Vmax (pmol/106 cells/min) OATP2B1: uptake, 2 min
Experimental: The human transporters OATP1B1, OATP1B3, OATP2B1, and OAT1‐OAT4 and a negative control protein (enhanced yellow fluorescent protein, eYFP) were transiently expressed in human embryonic kidney 293 (HEK293) cells by recombinant baculovirus‐mediated transduction. Baculoviruses carrying human genes for the transporters were prepared as reported previously. HEK293 cells were cultured in DMEM containing 10% fetal bovine serum at 37°C and 5% CO2 and passaged two to three times per week. For the transport studies, 0.05 × 10^6 cells for 48‐well plates (OATPs) or 0.06 × 10^6 cells for 24‐well plates (OATs) were seeded onto cell‐culture treated well plates coated with poly‐D‐lysine. After 1 day, cells were transduced to produce recombinant proteins by changing media to DMEM containing 30 μL (48‐well plates) or 60 μL (24‐well plates) of recombinant baculovirus and 3 mM (OATs) or 5 mM (OATPs) sodium butyrate in a total media volume of 500 μL. The cells were cultured for a further 2 days before the transport assays.
For the transport studies, media were removed and cells were washed once with warm transport uptake buffer (TP‐buffer—pH 7.4 HBSS with 25 mM HEPES and 4 mM sodium bicarbonate). Each experiment included triplicate (OATP) or duplicate (OAT) samples for every test condition. The uptake was started by removing liquid from wells and applying warm TP‐buffer (200 μL for 24‐well plates or 125 μL for 48‐well plates) containing a test compound to cells. Transport assays were terminated after a pre‐specified incubation time (reported in figure legends) by removing substrate solution and washing cells three times with cold TP‐buffer (300 μL for 48‐well plates and 400 μL for 24‐well plates). For the liquid chromatography mass spectrometry (LC–MS) analysis, compounds were extracted from cells with 125 μL (48‐well plates) or 250 μL (24‐well plates) of an ultrapure‐water solution containing 75% methanol and 0.1% formic acid, shaking at 250 RPM for 30 min. […] Samples were transferred to well plates, centrifuged at 3000 g for 30 min, and transferred to a new well plate for the analysis.
Equation (2) (the Michaelis–Menten equation) was fit to the transport kinetic assay data. […] (2) Uptake=Vmax×S/Km+S

| transport by OATP2B1 | Vmax (pmol/106 cells/min) OATP2B1 | Compound |
| --- | --- | --- |
| transported | 61.5 pmol/106 cells/min | Cc1onc(-c2c(Cl)cccc2Cl)c1C(=O)N[C@@H]1C(=O)N2[C@@H]1SC(C)(C)[C@@H]2C(=O)O [Dicloxacillin] |
| transported | 74.9 pmol/106 cells/min | Cc1onc(-c2c(F)cccc2Cl)c1C(=O)N[C@@H]1C(=O)N2[C@@H]1SC(C)(C)[C@@H]2C(=O)O [Flucloxacillin] |
